Reference: patent publication US8476035B2, “Agent that modulates physiological condition of pests, involved in insect choline acetyltransferase activity” (Sumitomo Chemical Company, Limited, priority 2007, dated 2013)
Where two headings read alike, the source gives them in different places.

Legend:
[1] = target: cotton aphid choline acetyltransferase (Aphis gossypii, UniProt A0A9P0JF82); assay: Inhibition of cotton aphid choline acetyltransferase activity (DTNB colorimetric in vitro assay); type: biochemical; details: for inhibition at 10 µM: test compound in DMSO at final concentration 10 μM, relative to DMSO control, read-out: Activity of inhibiting choline acetyltransferase activity (inhibition degree (%) at 10 μM addition)
cotton aphid choline acetyltransferase, sequence (A0A9P0JF82 entry or part of it): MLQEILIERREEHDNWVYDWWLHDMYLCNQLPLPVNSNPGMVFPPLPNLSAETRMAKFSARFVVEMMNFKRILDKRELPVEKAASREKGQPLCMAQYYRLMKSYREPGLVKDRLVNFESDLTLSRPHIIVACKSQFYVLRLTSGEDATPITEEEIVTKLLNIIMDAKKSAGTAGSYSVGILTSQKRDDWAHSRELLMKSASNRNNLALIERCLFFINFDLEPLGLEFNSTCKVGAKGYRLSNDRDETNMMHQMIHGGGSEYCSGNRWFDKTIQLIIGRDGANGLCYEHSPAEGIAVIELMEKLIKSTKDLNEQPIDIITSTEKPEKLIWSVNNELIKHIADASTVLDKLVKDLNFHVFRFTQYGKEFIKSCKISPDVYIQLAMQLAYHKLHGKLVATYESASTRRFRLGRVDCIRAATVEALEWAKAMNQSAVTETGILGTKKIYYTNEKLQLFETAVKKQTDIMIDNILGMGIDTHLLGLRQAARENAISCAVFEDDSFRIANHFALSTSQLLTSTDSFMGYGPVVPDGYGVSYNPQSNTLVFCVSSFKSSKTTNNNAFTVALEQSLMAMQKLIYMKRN
Method: Selection of a compound which modulates a choline acetyltransferase activity was performed in a system for measuring and evaluating the choline acetyltransferase activity, the activity being modulated by adding a test compound to an in vitro reaction system using the cotton aphid choline acetyltransferase prepared in Example 7.
As for a measurement of the cotton aphid choline acetyltransferase activity, after the enzymatic reaction of choline acetyltransferase using acetyl-CoA and choline as substrates, free CoA formed by choline acetyltransferase reaction was measured using 5,5′-dithio-bis(2-nitrobenzoic acid) (DTNB) reagent. DTNB reacts with free thiol groups in solution to produce 5-thio-2-nitrobenzoic acid (TNB). TNB is yellow and has absorption maximum at 412 nm. The produced TNB was measured […] to calculate choline acetyltransferase activity.
For measuring the activity, the activity of the aphid choline acetyltransferase was measured when a test compound dissolved in DMSO was contained to a final concentration of 10 μM. In addition, the activity of the aphid choline acetyltransferase was measured when DMSO was contained in place of a test compound. Then, a ratio (%) of a measured value of the activity of the aphid choline acetyltransferase when a test compound dissolved in DMSO was contained, relative to a measured value of the activity of aphid choline acetyltransferase when DMSO was contained in place of the test compound was calculated, and a value obtained by subtracting the calculated value from 100% was adopted as an inhibition degree (%). The results in each test compound are shown in Table 4 in Example 9 together with results of Example 9.
The activity of aphid choline acetyltransferase was measured when a test compound dissolved in DMSO was contained to a final concentration of each concentration of 100 μM, 30 μM, 10 μM, 3 μM, 1 μM, 0.3 μM, 0.1 μM or 0.03 μM. IC50 (μM) was calculated from the result of each concentration at each test compound using a concentration-dependent test analyzing software XL fit (manufactured by idbs). The results are shown in Table 5 in Example 10 together with results of Example 9.

[2] = tested on: Aphis gossypii; assay: Pesticidal activity test (artificial feed rearing of Aphis gossypii); type: in vivo; details: 50 ppm test compound in artificial feed; surviving Aphis gossypii counted after six days; significant controlling value (e.g. 30% or more) = pesticidal activity
[3] = concentrations 0.03-100 μM, XLfit, recombinant cotton aphid enzyme, read-out: Activity of inhibiting choline acetyltransferase activity (IC50)
[4] = recombinant cotton aphid enzyme

| SMILES | IC50 [1, 3] | inhibition at 10 µM [1, 4] | Result of Example 9: Determination result of pesticidal activity [2] | IC50 [1] |
| --- | --- | --- | --- | --- |
| CN(C)CCC(c1ccc(Cl)cc1)c1ccccn1.O=C(O)/C=C\C(=O)O (racemic) [DL-Chlorpheniramine Maleate] | > 100 µM | – | – | – |
| COc1cc(N)c(Cl)cc1C(=O)NC1CCN(CCCOc2ccc(F)cc2)CC1OC (stereo not drawn) [Cisapride] | > 100 µM | – | – | – |
| ICC1CSc2nncn21 (stereo not drawn) [DD03493] | 23.8 µM | 49% | Presence of pesticidal | – |
| O/N=C(\CBr)c1ccccc1 [DD05314] | – | 50% | Presence of pesticidal | – |
| CN(C)CCC(=O)c1cccc2ccccc12.Cl [α-NEDA, 2-(α-naphthoyl)ethyl-dimethylammonium chloride] | – | – | – | 33.5 µM |
| C[N+](C)(C)CCC(=O)c1cccc2ccccc12.[I-] [α-NETA, 2-(α-naphthoyl)ethyl-trimethylammonium iodide] | – | – | – | 1.5 µM |
